Results: PMC8279416, “Structural Fine-Tuning of Desmuramylpeptide NOD2 Agonists Defines Their In Vivo Adjuvant Activity” (Journal of Medicinal Chemistry, 2021)
Values joined by “and” are separate entries in the source; they are usually repeats but may differ in a detail not shown here. Identical values can stand only once.

Target: T1, NOD2 (Homo sapiens, UniProt Q9HC29)
T1 construct: host or cells: HEK-Blue NOD2 cells (HEK293-derived)
Assay: HEK-Blue NOD2 cell line reporter assay (NF-κB-inducible SEAP)
Format: cell-based
Conditions: for NOD2 activity at 2 μM (fold increase): NF-κB transcriptional (SEAP) activity relative to 0.1% DMSO; for Decrease of NOD2 agonistic activity/potency by a factor, relative to 1: ratio of EC50 versus compound 1; for NOD2 activation (in words): compound alone
Experimental: To determine the NOD2 agonistic potential of the synthesized desmuramylpeptides at the cellular level, we used the validated and commercially available HEK-Blue NOD2 cell line reporter assay. HEK-Blue NOD2 cells were first treated for 18 h with MDP, 1, or the novel desmuramylpeptides at 2 μM. The NF-κB transcriptional activity measured was normalized to that of the vehicle treated (0.1% DMSO) control HEK-Blue NOD2 cells.
HEK-Blue NOD2 and NOD1 cell line reporter assays are derived from HEK293 cells by cotransfection of the hNOD2 or hNOD1 genes, respectively, and an NF-κB-inducible secreted embryonic alkaline phosphatase (SEAP) reporter gene. Following activation of NOD2 or NOD1, the resulting NF-κB induces production of SEAP, the levels of which can be quantified colorimetrically. […] After 18 h of incubation (37 °C, 5% CO2), secreted embryonic alkaline phosphatase (SEAP) activity was determined spectrophotometrically as absorbance at 630 nm (BioTek Synergy microplate reader; Winooski, VT, U.S.A.). EC50 values were calculated using Prism software (version 9; GraphPad Software, CA, U.S.A.). For determination of specificity, HEK-Blue NOD2 cells (2.5 × 10^5 cells/mL) were first pretreated for 1 h with a 10 μM NOD2 antagonist, before the addition of the compounds (2 μM), with incubation for 18 h. SEAP activity in the supernatants was determined as above. The experiments were run in duplicate and repeated as at least two independent biological replicates.

[1] = HEK-Blue NOD2 cells, 18 h, mean ± SEM
[2] = HEK-Blue NOD2 cells, 18 h, 7 or 8 concentrations 1 nM to 20 μM, mean ± SEM

T1 sequence (Q9HC29 whole entry): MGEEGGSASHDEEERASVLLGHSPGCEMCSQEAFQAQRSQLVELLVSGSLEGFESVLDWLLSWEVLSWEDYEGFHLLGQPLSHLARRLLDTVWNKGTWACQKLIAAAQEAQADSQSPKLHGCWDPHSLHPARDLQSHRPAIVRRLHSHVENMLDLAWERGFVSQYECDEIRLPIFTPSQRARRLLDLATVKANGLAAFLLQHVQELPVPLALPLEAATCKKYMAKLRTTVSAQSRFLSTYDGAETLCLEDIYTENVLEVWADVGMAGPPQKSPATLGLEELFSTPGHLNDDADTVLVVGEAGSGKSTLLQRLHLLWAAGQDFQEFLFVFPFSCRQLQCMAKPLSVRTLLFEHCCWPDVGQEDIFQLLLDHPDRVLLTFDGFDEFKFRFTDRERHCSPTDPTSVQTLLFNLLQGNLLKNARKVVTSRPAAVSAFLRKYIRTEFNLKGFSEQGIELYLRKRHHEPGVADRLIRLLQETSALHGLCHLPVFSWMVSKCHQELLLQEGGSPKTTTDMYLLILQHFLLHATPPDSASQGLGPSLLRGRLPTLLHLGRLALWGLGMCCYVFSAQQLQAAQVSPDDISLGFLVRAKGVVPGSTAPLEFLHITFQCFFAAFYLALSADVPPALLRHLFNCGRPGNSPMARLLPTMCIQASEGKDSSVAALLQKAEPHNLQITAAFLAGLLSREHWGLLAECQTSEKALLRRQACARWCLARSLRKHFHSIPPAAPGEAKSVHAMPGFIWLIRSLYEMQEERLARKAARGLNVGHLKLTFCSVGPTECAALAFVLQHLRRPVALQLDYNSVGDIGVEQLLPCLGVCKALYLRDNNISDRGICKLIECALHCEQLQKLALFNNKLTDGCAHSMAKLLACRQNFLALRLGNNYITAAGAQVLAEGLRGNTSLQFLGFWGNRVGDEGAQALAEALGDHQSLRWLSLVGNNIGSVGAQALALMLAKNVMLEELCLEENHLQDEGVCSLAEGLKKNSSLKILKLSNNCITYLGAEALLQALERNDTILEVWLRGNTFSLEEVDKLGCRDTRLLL

Row | SMILES | NOD2 activity at 2 μM (fold increase) [1] | EC50 [2] | other results
1 | CCOC(=O)CC[C@@H](NC(=O)[C@@H](NC(=O)CNC(=O)CCc1ccc(O)c(OC)c1)C(C)C)C(=O)OCC [Compound 18, Diethyl (3-(4-Hydroxy-3-methoxyphenyl)propanoyl)glycyl-L-valyl-D-glutamate] | 1.97 ± 0.05 fold increase | 6160 ± 842 nM | EC50 (HEK-Blue NOD2 cells): 6160 nM; Decrease of NOD2 agonistic activity/potency by a factor, relative to 1: 70
2 | CCOC(=O)CC[C@@H](NC(=O)[C@@H](NC(=O)CNC(=O)C1CC1c1ccc(OC)c(OC)c1)C(C)C)C(=O)OCC (stereo partly drawn) [Compound 27, Diethyl (2-(3,4-Dimethoxyphenyl)cyclopropane-1-carbonyl)glycyl-L-valyl-D-glutamate] | 2.63 ± 0.15 fold increase | 322 ± 7 nM | Improved potency over 20 (ratio of EC50 versus compound 20): 2.4 fold
3 | CCOC(=O)CC[C@@H](NC(=O)[C@@H](NC(=O)CNC(=O)CCCc1ccc(O)c(OC)c1)C(C)C)C(=O)OCC [Compound 19, Diethyl (4-(4-Hydroxy-3-methoxyphenyl)butanoyl)glycyl-L-valyl-D-glutamate] | 1.73 ± 0.01 fold increase | 13900 ± 800 nM | Decrease of NOD2 agonistic activity/potency by a factor, relative to 1: 156
4 | CCOC(=O)CC[C@@H](NC(=O)[C@@H](NC(=O)CNC(=O)C1CC1c1ccc(O)c(OC)c1)C(C)C)C(=O)OCC (stereo partly drawn) [Compound 28, Diethyl (2-(4-Hydroxy-3-methoxyphenyl)cyclopropane-1-carbonyl)glycyl-L-valyl-D-glutamate] | 2.66 ± 0.07 fold increase | 369 ± 4 nM | Decrease of NOD2 agonistic activity/potency by a factor, relative to 1: 4
5 | CCCCCCCCCCCC(=O)Oc1ccc(/C=C/C(=O)NCC(=O)N[C@H](C(=O)N[C@H](CCC(=O)OC2CCCC2)C(=O)OC2CCCC2)C(C)C)cc1OC [Compound 77, Dicyclopentyl ((E)-3-(4-(Dodecanoyloxy)-3-methoxyphenyl)acryloyl)glycyl-L-valyl-D-glutamate] | 2.56 ± 0.12 fold increase | 243 ± 50 nM | –
6 | CCCCCCCCCCCCCCCCCC(=O)Oc1ccc(/C=C/C(=O)NCC(=O)N[C@@H](CO)C(=O)N[C@H](CCC(=O)OCC)C(=O)OCC)cc1OC [Compound 80, Diethyl ((E)-3-(3-Methoxy-4-(stearoyloxy)phenyl)acryloyl)glycyl-L-seryl-D-glutamate] | 1.21 fold increase and 1.21 ± 0.06 fold increase | – | –
7 | COc1cc(/C=C/C(=O)NCC(=O)N[C@H](C(=O)N[C@H](CCC(=O)N(C)OC)C(=O)OC(C)(C)C)C(C)C)ccc1O [Compound 61, tert-Butyl N^2-((E)-3-(4-Hydroxy-3-methoxyphenyl)acryloyl)glycyl-L-valyl-N^5-methoxy-N^5-methyl-D-glutaminate] | 1.33 ± 0.03 fold increase | – | –
8 | CCNC(=O)CC[C@@H](NC(=O)[C@@H](NC(=O)CNC(=O)/C=C/c1ccc(O)c(OC)c1)C(C)C)C(=O)NCC [Compound 57, (R)-N^1,N^5-Diethyl-2-((S)-2-(2-((E)-3-(4-hydroxy-3-methoxyphenyl)acrylamido)acetamido)-3-methylbutanamido)pentanediamide] | 1.45 ± 0.05 fold increase | – | NOD2 activation (in words) (HEK-Blue NOD2 cells): substantially diminished activity
9 | COc1cc(/C=C/C(=O)NCC(=O)N[C@H](C(=O)N[C@H](CCC(=O)OC2CCCC2)C(=O)OC2CCCC2)C(C)C)ccc1OC(C)=O [Compound 76, Dicyclopentyl ((E)-3-(4-Acetoxy-3-methoxyphenyl)acryloyl)glycyl-L-valyl-D-glutamate] | 2.67 ± 0.25 fold increase | 63 ± 0.2 nM | –
10 | CCCCCCCCCCCCCCCCCC(=O)Oc1ccc(/C=C/C(=O)NCC(=O)N[C@@H](COCc2ccccc2)C(=O)N[C@H](CCC(=O)OCC)C(=O)OCC)cc1OC [Compound 79, Diethyl O-Benzyl-N-(((E)-3-(3-methoxy-4-(stearoyloxy)phenyl)acryloyl)glycyl)-L-seryl-D-glutamate] | 1.68 fold increase and 1.68 ± 0.03 fold increase | – | –
11 | CCOC(=O)CC[C@@H](NC(=O)[C@@H](NC(=O)CNC(=O)/C=C/c1ccc(N)cc1)C(C)C)C(=O)OCC [Compound 24, Diethyl ((E)-3-(4-Aminophenyl)acryloyl)glycyl-L-valyl-D-glutamate] | 2.45 ± 0.18 fold increase | 542 ± 48 nM | –
12 | CCCCNC(=O)CC[C@@H](NC(=O)[C@@H](NC(=O)CNC(=O)/C=C/c1ccc(O)c(OC)c1)C(C)C)C(=O)NCCCC [Compound 58, (R)-N^1,N^5-Dibutyl-2-((S)-2-(2-((E)-3-(4-hydroxy-3-methoxyphenyl)acrylamido)acetamido)-3-methylbutanamido)pentanediamide] | 1.30 ± 0.03 fold increase | – | –
13 | COc1cc(/C=C/C(=O)NCC(=O)N[C@H](C(=O)N[C@H](CCC(=O)OC(C)(C)C)C(=O)N(C)OC)C(C)C)ccc1O [Compound 63, tert-Butyl (R)-4-((S)-2-(2-((E)-3-(4-Hydroxy-3-methoxyphenyl)acrylamido)acetamido)-3-methylbutanamido)-5-(methoxy(methyl)amino)-5-oxopentanoate] | 1.36 ± 0.05 fold increase | – | –
14 | CCOC(=O)CC[C@@H](NC(=O)[C@@H](NC(=O)CNC(=O)C1CC1c1ccc(F)c(F)c1)C(C)C)C(=O)OCC (stereo partly shown) [Compound 29] | 2.63 ± 0.10 fold increase | 49 ± 3 nM | –
15 | CCOC(=O)CC[C@@H](NC(=O)[C@@H](NC(=O)CNC(=O)[C@H]1C[C@@H]1c1ccc(F)c(F)c1)C(C)C)C(=O)OCC [Compound 29a] | 2.46 ± 0.12 fold increase | 66 ± 5 nM | –
16 | COc1cc(/C=C/C(=O)NCC(=O)N[C@H](C(=O)N[C@H](CCC(=O)OC(C)(C)C)C(=O)N2CCCC2)C(C)C)ccc1O [Compound 64, tert-Butyl (R)-4-((S)-2-(2-((E)-3-(4-Hydroxy-3-methoxyphenyl)acrylamido)acetamido)-3-methylbutanamido)-5-oxo-5-(pyrrolidin-1-yl)pentanoate] | 1.33 ± 0.03 fold increase | – | –
17 | CCOC(=O)CC[C@@H](NC(=O)[C@H](COCc1ccccc1)NC(=O)CNC(=O)/C=C/c1ccc(O)c(OC)c1)C(=O)OCC [Compound 30, Diethyl O-Benzyl-N-(((E)-3-(4-hydroxy-3-methoxyphenyl)acryloyl)glycyl)-L-seryl-D-glutamate] | 2.04 fold increase and 2.04 ± 0.02 fold increase | 5560 ± 1470 nM | EC50 (HEK-Blue NOD2 cells): 5560 nM
18 | CCCCNC(=O)CC[C@@H](NC(=O)[C@@H](NC(=O)CNC(=O)/C=C/c1ccc(O)c(OC)c1)C(C)C)C(=O)OC(C)(C)C [Compound 59, tert-Butyl N^5-Butyl-N^2-((E)-3-(4-hydroxy-3-methoxyphenyl)acryloyl)glycyl-L-valyl-D-glutaminate] | 1.32 ± 0.05 fold increase | – | –
19 | CONC(=O)CC[C@@H](NC(=O)[C@@H](NC(=O)CNC(=O)/C=C/c1ccc(O)c(OC)c1)C(C)C)C(=O)OC(C)(C)C [Compound 60, tert-Butyl N^2-((E)-3-(4-Hydroxy-3-methoxyphenyl)acryloyl)glycyl-L-valyl-N^5-methoxy-D-glutaminate] | 1.32 ± 0.02 fold increase | – | –
20 | CCOC(=O)[C@@H](CCC(=O)N[C@@H](CCCCN)C(=O)OC)NC(=O)[C@@H](NC(=O)CNC(=O)/C=C/c1ccc(O)c(OC)c1)C(C)C [Compound 41, Methyl ((R)-5-Ethoxy-4-((S)-2-(2-((E)-3-(4-hydroxy-3-methoxyphenyl)acrylamido)acetamido)-3-methylbutanamido)-5-oxopentanoyl)-L-lysinate] | 1.86 ± 0.02 fold increase | 10200 ± 2620 nM | EC50 (HEK-Blue NOD2 cells): 10200 nM
21 | CCCCCCCCCCCC(=O)O [lauric acid, reference compound] | – | – | NOD2 activation (in words) (HEK-Blue NOD2 cells): did not show any NOD2 activation alone; Enhancement of the NOD2 agonistic activity of 1 (HEK-Blue NOD2 cells, in combination with 1, data not shown): did not enhance the NOD2 agonistic activity of 1
22 | CCOC(=O)CC[C@@H](NC(=O)[C@@H](NC(=O)CNC(=O)/C=C/c1ccc(OC)c(OC)c1)C(C)C)C(=O)OCC [Compound 20, Diethyl ((E)-3-(3,4-Dimethoxyphenyl)acryloyl)glycyl-L-valyl-D-glutamate] | 2.64 ± 0.01 fold increase | 763 ± 88 nM | –
